Data as given in BigSolDB 2.1.

O=[N+]([O-])c1cccc2cccc([N+](=O)[O-])c12
solubility (mole fraction)
Details	in acetone	in acetonitrile	in chloroform	in ethanol	in ethyl acetate	in isopropanol	in methanol	in n-butanol	in toluene
273.15 K	0.0103	0.00295	0.00311	0.000242	0.00414	8.97e-05	0.000293	0.000155	0.00119
275.65 K	0.0113	0.00331	0.0035	0.000267	0.00446	0.000103	0.000327	0.000178	0.00125
278.15 K	0.0119	0.0039	0.00382	0.000294	0.00471	0.000126	0.000356	0.00021	0.00138
280.65 K	0.013	0.00465	0.0042	0.000323	0.00522	0.000146	0.000398	0.000237	0.00157
283.15 K	0.014	0.00528	0.00473	0.000351	0.00551	0.000173	0.000429	0.000272	0.00171
285.65 K	0.0152	0.00597	0.00508	0.000385	0.00607	0.000198	0.000485	0.000314	0.00188
288.15 K	0.0163	0.00661	0.00561	0.000427	0.00659	0.000224	0.000536	0.000356	0.00205
291.15 K	0.0177	0.00761	0.00601	0.000484	0.0072	0.000265	0.000599	0.000411	0.00235
293.15 K	0.0189	0.00821	–	0.000529	0.00765	0.000296	0.000641	0.000449	0.00255
295.65 K	0.0205	0.00921	0.00732	0.000584	0.00822	0.000334	0.000696	0.000504	0.0028
298.15 K	0.0223	0.0102	0.00787	0.000646	–	0.000382	0.000758	–	0.00309
300.65 K	0.0243	0.0112	0.0084	0.00071	0.00947	0.00043	0.000821	0.000623	0.00344
303.15 K	0.0261	0.012	0.00923	0.000789	0.0102	0.000482	0.000891	0.00069	0.00382
305.65 K	0.028	0.013	0.00983	0.000878	0.011	0.000536	0.000971	0.000759	0.00427
308.15 K	0.0306	0.014	0.0107	0.000994	0.0119	0.000605	0.00106	0.000832	0.00468
